From US10888548B2, “Anti-dandruff compositions comprising a spirofuranone lactam tetramic acid derivative” (priority 2015, dated 2021) come the findings set out here.

For this experiment, the system named is Malassezia furfur (ATCC #38593). Put plainly: M. furfur efficacy assay (anti-fungal activity, Alamar blue, 96 well plates). Format: cell-based. The protocol:
Malassezia furfur (ATCC #38593) was cultured on Media C agar for 7 d at 37° C. Yeast colonies were then harvested into 0.9% saline sterile diH2O and diluted to approximately 1.5×10^6 CFU/mL using a 0.5 MacFarland standard (Fisher #R20410) to create an assay inoculum. Assay inoculum was added to sterile Media C broth to a final concentration of 4.5×10^4 CFU/mL. Assays were carried out in 96 well plates with a final well volume of 100 μL.
Extract fractions and pure compounds were tested in triplicate against each organism. Extract fractions and pure compounds were resuspended in sterile 20% DMSO.
Each plate contained eight uninoculated positive controls (media+20% DMSO), eight untreated negative controls (Media+20% DMSO+organism), and one column containing a concentration range of a ketoconazole as a control antibiotic. The assay plate was incubated at 37° C. for 5d after which growth within the wells were visualized and photographed with a UVP Biospectrum 500 imaging system. Alamar blue was then added to each well at 10% of the culture volume (11 μL in 100 μL). Fluorescence was monitored using a BioTek Synergy HT plate reader at 530/25 excitation, 590/35 emission and 35 sensitivity at both time zero and 4 hrs after Alamar blue was added. After subtracting the time zero emission 590 nm measurement from the final reading the inferred percentage of microorganism survival relative to vehicle control wells were calculated.
Experimentation was carried out to assess the anti-fungal effect of the produced fumagillin derivative and the pseurotin A each on their own, and in combination against M. furfur in a shampoo type formulation.
Initially the M. furfur efficacy assay was tested with both J&J Baby Shampoo as well as Head & Shoulders to establish a baseline and assess the compatibility of the assay using a shampoo. Compositions of the fumagillin derivative with and without pseurotin A were created and suspended into the baby shampoo. The shampoo mixture was then diluted out into the assay in a similar manner to Head & Shoulders, so that various dilution points in the assay represented multiple sub-inhibitory concentrations of the fumagillin derivative and pseurotin A (concentration combinations are listed in Table 1).

For `CC/C=C\[C@H](O)[C@H](O)C1=C(C)C(=O)[C@]2(O1)C(=O)N[C@@](OC)(C(=O)c1ccccc1)[C@@H]2O` [Pseurotin A, pseurotin A], the IC50 (active alone, M. furfur, incubated at 37° C. for 5d) turned out to be 55 µg/mL. Also, the MIC is, setting by setting: (active alone, M. furfur, incubated at 37° C. for 5d, listed as Pseurotin A (sample 1)) 128 µg/mL; (active alone, M. furfur, incubated at 37° C. for 5d, listed as Pseurotin A (sample 2)) 75 µg/mL. Besides, the “anti-Malassezia activity of isolated pure fractions” value (fraction 6 and fraction 10 of Peyronellaea sp. RKDO347 extract) is given as “demonstrated anti-Malassezia activity”.
